A short description of the test: Tb3+/DPA microwell plate leakage assay. As to conditions: positive control, complete dissolution of membranes. As to the method:
The Tb^3+/DPA assay, a high throughput leakage assay developed by Rausch and Wimley, 2001, was employed in order to determine each LLP peptide's ability to disturb lipid membrane integrity. […] To this end, Tb^3+ was entrapped in Large Unilamellar Vesicles composed of 10% POPG: 90% POPC diluted in a KPO4 buffer containing DPA. Only upon membrane disruption was terbium able to come into contact with DPA in the buffer generating a fluorescent complex. Various ratios of peptide:lipid were incubated together in a microwell plate and the resulting fluorescence emissions were monitored under UV irradiation. LLP -1, -2, and -1D peptides used in this study were not NBD labeled, but were N-terminally labeled with a tryptophan residue for quantification.
To prepare Tb^3+ LUVs, lipids were resuspended to 100 mM concentration in 50 mM Tb^3+, 100 mM sodium citrate, 10 mM TES pH 7.2. Gel Filtration on Sephadex G-200 was used to elute LUVs and remove unencapsulated Tb^3+ in a buffer of 10 mM TES and 325 mM NaCl. Final lipid concentrations were determined by phosphate analysis. […] Finally, samples were heated in a water bath with AmMo and ascorbic acid for 10–15 minutes and absorbance at 660 nm was measured. Concentrations were determined by comparison to a standard curve generated using known KPO4 concentrations. […]

On to Triton X-100, for which the leakage of vesicles amounted to 100%.

For the origin of these results see PMC2211469, “Viroporin potential of the lentivirus lytic peptide (LLP) domains of the HIV-1 gp41 protein” (Virology Journal, 2007).
